Consider one compound from patent US12622911B2, “Methods and compositions for the treatment of pulmonary fibrosis using volasertib” (Children's Hospital Medical Center, priority 2021, dated 2026).

One series has as its target PLK1 (Homo sapiens, UniProt P53350). The note with it: cited from earlier work.
Series [1] deals with TGFα-induced pulmonary fibrosis. The series is described as follows: TGFα-induced pulmonary fibrosis in TGFα mice on Dox, lung gene expression. In kind it is in vivo. The note with it: volasertib 30 mg/kg QD with Dox for five days. An excerpt:
FIG. 18. In vivo inhibition of PLK1 with volasertib attenuates ECM gene expression during TGFα-induced pulmonary fibrosis.
FIG. 19. In vivo inhibition of PLK1 with volasertib attenuates MYCN and PLK1 during TGFα induced pulmonary fibrosis.
FIG. 21. In vivo inhibition with volasertib attenuates ECM gene expression during TGFα-induced pulmonary fibrosis. *P<0.05.
(§1) Pharmacological inhibition of PLK1 attenuates the WT1-MYCN-PLK1 axis. […] To determine in vivo therapeutic effects of volasertib, TGFα mice were treated simultaneously with volasertib (30 mg/kg; QD) and Dox for five days, a period that leads to activation of WT1, MYCN and PLK1 in fibroblasts. […] Together, in vivo studies have established that inhibiting PLK1 is sufficient to attenuate the WT1-MYCN-PLK1 axis involved in fibroblast activation and pulmonary fibrosis.

The subject of series [2] is IPF fibroblasts. The series is described as follows: ECM-associated gene transcripts in IPF fibroblasts by RT-PCR. In kind it is cell-based, human. The conditions noted are these: vehicle or volasertib for 16 hours, FIG. 16. Here is the method: FIG. 16. Inhibition of PLK1 using volasertib attenuates ECM gene expression. IPF fibroblasts were treated with vehicle or volasertib for 16 hours and ECM-associated gene transcripts Col1α, Col3α1, FN1, and αSMA) were measured using RT-PCR. *p<0.05.
as §1

Series [3] concerns severe fibrotic lung disease. Description: Therapeutic efficacy against severe fibrotic lung disease in two alternative mouse models (TGFα transgenic, repeated bleomycin). The note with it: compared to FDA-approved nintedanib therapy. In kind it is in vivo. An excerpt: WT1-driven anti-apoptotic genes (BCL3, BCL2L1, etc.), MYCN, and PLK1 were previously unknown to have a role in the pathogenesis of lung scarring, in fibroproliferation, FMT, survival, and ECM production. […] A novel clinical application for volasertib in the area of pulmonary fibrosis may include volasertib therapy to prevent progression or reverse established fibrotic lung disease. Applicant's studies utilize a novel transgenic mouse model in which the pro-fibrotic growth factor TGFα is selectively and temporally overexpressed in the lung epithelium, resulting in progressive subpleural scarring, similar to the pattern seen in human IPF, and an alternative mouse model of fibrosis using repeated doses of bleomycin. Applicant's data provide compelling support that inhibiting the MYCN-PLK1 axis may be effective in arresting fibrotic lung remodeling, and may be used in patients with pulmonary fibrosis.

Series [4] in a line: H&E stainings for toxicity in volasertib-treated TGFα mice. The note with it: at the doses tested (30 mg/kg QD, five days), data not shown. In kind it is in vivo. Here is the method: as §1
The subject of series [5] is IPF fibroblasts. The series is described as follows: CDK4 gene expression in IPF fibroblasts by RT-PCR. It counts as cell-based, human. The conditions noted are these: vehicle or volasertib for 16 hours, FIG. 20.
The subject of series [6] is WT1-MYCN-PLK1 axis in IPF fibroblasts. Description: PLK1, MYCN and WT1 protein levels in IPF fibroblast lysates by western blot. The conditions noted are these: volasertib 1 μM for 48 hours, western blot normalized to GAPDH, FIG. 17. It counts as cell-based, human. Here is the method:
FIG. 17. Volasertib treatment attenuates the WT1-MYCN-PLK1 axis in IPF fibroblasts. IPF fibroblasts were treated with vehicle or volasertib (1 μM) for 48 hours and measured PLK1, MYCN and WT1 protein levels in cell lysates using western blots and normalized to GAPDH. *P<0.05.
as §1

The structures appear in SMILES notation.

Sequence of PLK1 (P53350 whole entry, species assumed): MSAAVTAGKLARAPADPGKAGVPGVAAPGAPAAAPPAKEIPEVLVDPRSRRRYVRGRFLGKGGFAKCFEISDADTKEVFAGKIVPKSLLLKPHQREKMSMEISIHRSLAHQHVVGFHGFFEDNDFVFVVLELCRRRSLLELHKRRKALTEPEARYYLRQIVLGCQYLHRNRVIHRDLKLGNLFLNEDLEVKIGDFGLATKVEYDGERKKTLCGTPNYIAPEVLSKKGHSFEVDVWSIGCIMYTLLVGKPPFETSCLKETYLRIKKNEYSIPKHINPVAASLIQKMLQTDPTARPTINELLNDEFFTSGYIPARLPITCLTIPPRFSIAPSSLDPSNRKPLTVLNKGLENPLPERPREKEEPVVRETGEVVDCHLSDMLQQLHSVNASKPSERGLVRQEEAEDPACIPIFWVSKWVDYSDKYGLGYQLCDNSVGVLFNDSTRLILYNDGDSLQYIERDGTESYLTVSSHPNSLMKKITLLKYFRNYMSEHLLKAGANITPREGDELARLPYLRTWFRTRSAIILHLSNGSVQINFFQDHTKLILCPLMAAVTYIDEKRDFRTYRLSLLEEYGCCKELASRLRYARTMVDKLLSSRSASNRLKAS

For `CC[C@@H]1C(=O)N(C)c2cnc(Nc3ccc(C(=O)N[C@H]4CC[C@H](N5CCN(CC6CC6)CC5)CC4)cc3OC)nc2N1C(C)C` [volasertib, N-[trans-4-[4-(cyclopropylmethyl)-1-piperazinyl]cyclohexyl]-4-[[(7R)-7-ethyl-5,6,7,8-tetrahydro-5-methyl-8-(1-methylethyl)-6-oxo-2-pteridinyl]amino]-3-methoxy-benzamide], the “binds and inhibits PLK1” value at PLK1 is given as “at nanomolar doses”. For the same compound, the “MYCN and PLK1 levels in lungs” value in series [1] (FIG. 19) is “able to attenuate both MYCN and PLK1 levels”. Also, the “ECM gene expression including Col1α1, Col3a1, and FN1” value in series [1] (vs vehicle-treated fibrosis controls, FIG. 18) was “attenuated ECM gene expression”. The “ECM gene expression (Col1α, Col3α1, FN1, αSMA transcripts)” value with IPF fibroblasts [2] was “sufficient to attenuate ECM gene expression”. For the same compound, the “therapeutic efficacy against severe fibrotic lung disease” value in series [3] is listed as “demonstrated therapeutic efficacy”. In series [4], the “toxicity by H&E stainings” value is given as “no toxicity”. Moreover, the CDK4 gene expression result with IPF fibroblasts [5] is “attenuates CDK4 gene expression”. The “MYCN, WT1 and PLK1 levels” value in series [6] was “sufficient to attenuate MYCN, WT1 and PLK1 levels”.
